Assay: in vivo
Conditions: female, dog, plasma, po, 10 mg/day
Description: A study was conducted to determine the levels of oxybutynin and its active metabolite, N-desethyloxybutynin, present in plasma following oral and intravaginal administration of oxybutynin in dogs.
A 14 day study was conducted, where 8 young adult females were randomly assigned to 4 groups of 2 dogs each.

Cmax: ~17.9 ng/mL
SMILES: CCN(CC)CC#CCOC(=O)C(O)(c1ccccc1)C1CCCCC1 (stereo not shown) [oxybutynin, 4-diethylaminobut-2-ynyl2-cyclohexyl-2-hydroxy-2-phenyl-ethanoate]

From US20120053534A1, “INTRAVAGINAL DEVICES COMPRISING ANTICHOLINERGIC AGENTS, AND METHODS OF MAKING THEREOF” (priority 2010, published 2012)
